From patent EP0067666A1, “Salts of antimicrobial naphthyridine and quinoline compounds and their production” (priority 1981, dated 1982)
Converted amounts (≈) assume the structure as drawn. Read-outs that look alike come from different tables or passages of the source.

Key:
[1] = tested on: Proteus retgeri M 1771; experiment: Antibacterial activity, MIC; format: cell-based
[2] = tested on: Strep. faecalis MGH-2; experiment: Antibacterial activity, MIC; format: cell-based
[3] = tested on: Entero cloacae MA 2646; experiment: Antibacterial activity, MIC; format: cell-based
[4] = tested on: Strep. pneumoniae SV-1; experiment: Antibacterial activity, MIC; format: cell-based
[5] = tested on: Escherichia coli Vogel; experiment: Acute mouse protection test; format: in vivo; details: single dose given at time of challenge; for ED50: Escherichia coli
[6] = tested on: Klebsiella pneumoniae MGH-2; experiment: Acute mouse protection test; format: in vivo; details: single dose given at time of challenge; for ED50: Klebsiella pneumoniae
[7] = tested on: Klebs. pneumoniae MGH-2; experiment: Antibacterial activity, MIC; format: cell-based
[8] = tested on: Strep. pyogenes C-203; experiment: Antibacterial activity, MIC; format: cell-based
[9] = tested on: Staph. aureus UC-76; experiment: Antibacterial activity, MIC; format: cell-based
[10] = tested on: Pseudo. aeruginosa UI-18; experiment: Antibacterial activity, MIC; format: cell-based
[11] = tested on: Staph. aureus H 228; experiment: Antibacterial activity, MIC; format: cell-based
[12] = tested on: E. coli Vogel; experiment: Antibacterial activity, MIC; format: cell-based
[13] = tested on: Staphylococcus aureus UC-76; experiment: Acute mouse protection test; format: in vivo; details: single dose given at time of challenge, compound B series
[14] = subcutaneous, compound B series
[15] = subcutaneous, compound A series

Compound | MIC µg/ml Pseudo. aeruginosa UI-18 ([10]; based on content of compound A) [µg/mL] | MIC µg/ml Proteus retgeri M 1771 ([1]; based on content of compound B) [µg/mL] | MIC µg/ml Strep. faecalis MGH-2 ([2]; based on content of compound B) [µg/mL] | MIC µg/ml Entero cloacae MA 2646 ([3]; based on content of compound B) [µg/mL] | MIC µg/ml Strep. pneumoniae SV-1 ([4]; based on content of compound B) [µg/mL] | Single po Dose PD50 (mg/kg) ± 95% Confidence Limits Escherichia coli Vogel ([5]; compound B series) [mg/kg] | Single sc Dose PD50 (mg/kg) ± 95% Confidence Limits Escherichia coli Vogel [5, 14] [mg/kg] | Single sc Dose PD50 (mg/kg) ± 95% Confidence Limits Klebsiella pneumoniae MGH-2 [6, 14] [mg/kg] | MIC µg/ml Klebs. pneumoniae MGH-2 ([7]; based on content of compound B) [µg/mL] | MIC µg/ml Strep. pyogenes C-203 ([8]; based on content of compound B) [µg/mL] | MIC µg/ml Staph. aureus UC-76 ([9]; based on content of compound B) [µg/mL] | MIC µg/ml Pseudo. aeruginosa UI-18 ([10]; based on content of compound B) [µg/mL] | MIC µg/ml Staph. aureus H 228 ([11]; based on content of compound B) [µg/mL] | MIC µg/ml E. coli Vogel ([12]; based on content of compound B) [µg/mL] | MIC µg/ml Proteus retgeri M 1771 ([1]; based on content of compound A) [µg/mL] | MIC µg/ml Strep. faecalis MGH-2 ([2]; based on content of compound A) [µg/mL] | MIC µg/ml Entero cloacae MA 2646 ([3]; based on content of compound A) [µg/mL] | MIC µg/ml Strep. pneumoniae SV-1 ([4]; based on content of compound A) [µg/mL] | MIC µg/ml Klebs. pneumoniae MGH-2 ([7]; based on content of compound A) [µg/mL] | MIC µg/ml Strep. pyogenes C-203 ([8]; based on content of compound A) [µg/mL] | further results
CCn1cc(C(=O)O)c(=O)c2cc(F)c(N3CCNCC3)cc21 [Compound A, 1-ethyl-6-fluoro-1,4-dihydro-4-oxo-7-(1-piperazinyl)-3-quinolinecarboxylic acid, reference compound] | 0.4 (≈ 1.25 µM) |  |  |  |  |  |  |  |  |  |  |  |  |  |  |  |  |  |  |  | MIC ([1]; based on content of compound A): < 0.1 µg/mL; MIC ([2]; Enterococcus faecalis, MGH2, based on content of compound A): 1.6 µg/mL (≈ 5.01 µM); MIC ([3]; based on content of compound A): < 0.1 µg/mL; MIC ([4]; Streptococcus pneumoniae, SV1, based on content of compound A): 0.8 µg/mL (≈ 2.51 µM); ED50 ([5]; po, compound A series, read-out: Single po Dose PD50 (mg/kg) ± 95% Confidence Limits Escherichia coli Vogel): 3.3 ± 0.5 mg/kg; ED50 ([5]; sc, subcutaneous, compound A series, read-out: Single sc Dose PD50 (mg/kg) ± 95% Confidence Limits Escherichia coli Vogel): 0.5 ± 0.1 mg/kg; ED50 ([6]; MGH2, po, oral, compound A series, read-out: Single po Dose PD50 (mg/kg) ± 95% Confidence Limits Klebsiella pneumoniae MGH-2): 15 ± 3 mg/kg; ED50 ([6]; MGH2, sc, subcutaneous, compound A series, read-out: Single sc Dose PD50 (mg/kg) ± 95% Confidence Limits Klebsiella pneumoniae MGH-2): 1.3 ± 0.3 mg/kg; MIC ([7]; Klebsiella pneumoniae, MGH2, based on content of compound A): 0.2 µg/mL (≈ 0.626 µM); MIC ([8]; Streptococcus pyogenes, C203, based on content of compound A): 0.8 µg/mL (≈ 2.51 µM); MIC ([9]; Staphylococcus aureus, UC76, based on content of compound A): 0.1 µg/mL (≈ 0.313 µM); MIC ([11]; Staphylococcus aureus, H228, based on content of compound A): 1.6 µg/mL (≈ 5.01 µM); MIC ([12]; Escherichia coli, based on content of compound A): 0.1 µg/mL (≈ 0.313 µM)
CCn1cc(C(=O)O)c(=O)c2cc(F)c(N3CCNCC3)nc21 [B Gluconate] |  | 0.2 | 3.1 | 0.4 | 3.1 | 2.9 ± 0.7 | 1.1 ± 0.4 | 5.2 ± 1.5 | 0.2 | 3.1 | 0.4 | 0.8 | 1.6 | 0.1 |  |  |  |  |  |  | 
CCn1cc(C(=O)O)c(=O)c2cc(F)c(N3CCNCC3)cc21 [A Glutamate] | 0.1 (≈ 0.313 µM) |  |  |  |  |  |  |  |  |  |  |  |  |  | 0.1 (≈ 0.313 µM) | 1.6 (≈ 5.01 µM) | <0.1 | 1.6 (≈ 5.01 µM) | 0.1 (≈ 0.313 µM) | 0.8 (≈ 2.51 µM) | MIC µg/ml Staph. aureus UC-76 ([9]; based on content of compound A): <0.1 µg/mL; MIC µg/ml Staph. aureus H 228 ([11]; based on content of compound A): 1.6 µg/mL (≈ 5.01 µM); MIC µg/ml E. coli Vogel ([12]; based on content of compound A): <0.1 µg/mL
CCn1cc(C(=O)O)c(=O)c2cc(F)c(N3CCNCC3)cc21 [A Gluconate] | 0.2 |  |  |  |  |  |  |  |  |  |  |  |  |  | <0.1 | 0.8 | 0.2 | 1.6 | 0.2 | 0.8 | Single po Dose PD50 (mg/kg) ± 95% Confidence Limits Escherichia coli Vogel ([5]; compound A series): 3.9 ± 0.9 mg/kg; Single sc Dose PD50 (mg/kg) ± 95% Confidence Limits Escherichia coli Vogel [5, 15]: 0.5 ± 0.1 mg/kg; Single po Dose PD50 (mg/kg) ± 95% Confidence Limits Klebsiella pneumoniae MGH-2 ([6]; oral, compound A series): 13 ± 6 mg/kg; Single sc Dose PD50 (mg/kg) ± 95% Confidence Limits Klebsiella pneumoniae MGH-2 [6, 15]: 1.4 ± 0.3 mg/kg; MIC µg/ml Staph. aureus UC-76 ([9]; based on content of compound A): 0.2 µg/mL; MIC µg/ml Staph. aureus H 228 ([11]; based on content of compound A): 1.6 µg/mL; MIC µg/ml E. coli Vogel ([12]; based on content of compound A): <0.1 µg/mL
CCn1cc(C(=O)O)c(=O)c2cc(F)c(N3CCNCC3)nc21 [B Aspartate] |  | <0.1 | 3.1 (≈ 9.68 µM) | 0.2 (≈ 0.624 µM) | 3.1 (≈ 9.68 µM) | 2.9 ± 1.0 | 1.3 ± 0.4 | 1.6 ± 0.6 | 0.1 (≈ 0.312 µM) | 6.3 (≈ 19.7 µM) | 0.1 (≈ 0.312 µM) | 0.4 (≈ 1.25 µM) | 3.1 (≈ 9.68 µM) | <0.1 |  |  |  |  |  |  | Single po Dose PD50 (mg/kg) ± 95% Confidence Limits Staphylococcus aureus UC-76 ([13]; oral): 13 ± 3.0 mg/kg; Single sc Dose PD50 (mg/kg) ± 95% Confidence Limits Staphylococcus aureus UC-76 ([13]; subcutaneous): 4.3 ± 1.4 mg/kg
